From paper PMC10401071 (Cancer Discovery, 2023)

System: advanced or metastatic solid tumors
Test: Antitumor activity, investigator-assessed per RECIST v1.1, PFS by Kaplan–Meier
Assay type: in vivo, human
Conditions: for duration of stable disease: WDLPS; for duration of response: partial response

Cc1c(C(=O)O)ccc2c3n(nc12)[C@@H]1[C@H](C3)N(CC2CC2)[C@@]2(C(=O)Nc3cc(Cl)ccc32)[C@H]1c1cccc(Cl)c1F [brigimadlin]
disease control rate (12 patients with DDLPS): 75% | Complete response (All patients (N = 54)): 0 n (%) | Confirmed objective response (All patients (N = 54)): 6 (11.1) n (%) | Disease control (All patients (N = 54)): 40 (74.1) n (%) | Not evaluable (best overall response) (All patients (N = 54)): 3 (5.6) n (%) | Partial response (All patients (N = 54)): 6 (11.1) n (%) | Progressive disease (All patients (N = 54)): 11 (20.4) n (%) | Stable disease (All patients (N = 54)): 34 (63.0) n (%) | overall response rate (D1D8q4w): 8.0% | Complete response (D1D8q4w (n = 25)): 0 n (%) | Confirmed objective response (D1D8q4w (n = 25)): 2 (8.0) n (%) | Disease control (D1D8q4w (n = 25)): 18 (72.0) n (%) | Not evaluable (best overall response) (D1D8q4w (n = 25)): 2 (8.0) n (%) | Partial response (D1D8q4w (n = 25)): 2 (8.0) n (%) | Progressive disease (D1D8q4w (n = 25)): 5 (20.0) n (%) | Stable disease (D1D8q4w (n = 25)): 16 (64.0) n (%) | disease control rate (D1D8q4w arm): 72.0% | median progression-free survival (PFS) (D1D8q4w arm, 95% CI: 3.7–18.5): 8.0 months | overall response rate (D1q3w): 13.8% | Complete response (D1q3w (n = 29)): 0 n (%) | Confirmed objective response (D1q3w (n = 29)): 4 (13.8) n (%) | Disease control (D1q3w (n = 29)): 22 (75.9) n (%) | Not evaluable (best overall response) (D1q3w (n = 29)): 1 (3.4) n (%) | Partial response (D1q3w (n = 29)): 4 (13.8) n (%) | Progressive disease (D1q3w (n = 29)): 6 (20.7) n (%) | Stable disease (D1q3w (n = 29)): 18 (62.1) n (%) | disease control rate (D1q3w arm): 75.9% | median progression-free survival (PFS) (D1q3w arm, 95% CI: 3.0–20.7): 10.6 months | duration of stable disease (one patient): > 14 months | duration of stable disease (the other two patients): ~8 months | disease control rate (all 54 patients): 74.1% | overall response rate (all 54 patients, data cutoff October 24, 2022): 11.1% | PFS (all seven patients with WDLPS): > 7.5 months | duration of partial response (four WDLPS patients, ranging up to about 25 months): ≥ 12 months | patients achieving PFS ≥14 months (of seven patients with WDLPS): five | patients achieving a partial response (of seven patients with WDLPS): four | patients achieving stable disease (of seven patients with WDLPS): three | patients achieving stable disease (of the 12 patients with DDLPS): nine | duration of response (one patient with MDM2-amplified intrahepatic cholangiocarcinoma): ~12 months | duration of response (one patient with MDM2-amplified pancreatic cancer): > 5.5 months | median progression-free survival (PFS) (overall, preliminary analysis, 95% CI: 3.8–13.5): 8.1 months | disease control rate (seven patients with WDLPS): 100% | tumor reduction (partial response) (single patient (Fig. 3A), MDM2-amplified WDLPS, 20 mg q3w, starting at cycle 2): 31% | tumor reduction (single patient (Fig. 3A), MDM2-amplified WDLPS, cycle 19, dose reduced to 10 mg): 47% | tumor reduction (partial response) (single patient (Fig. 3B), MDM2-amplified WDLPS, 80 mg D1q3w, cycle 3): 32% | best tumor reduction (single patient (Fig. 3B), MDM2-amplified WDLPS, at data cutoff): 42% | time on treatment (single patient (Fig. 3B), MDM2-amplified WDLPS, ongoing at data cutoff): more than 25 months | time on treatment before progressive disease (single patient (Fig. 3D), MDM2-amplified cholangiocarcinoma): 13.3 months
